Some results are limits rather than exact numbers.

Experimental findings from article PMC10363532, “Xanthone synthetic derivatives with high anticandidal activity and positive mycostatic selectivity index values” (Scientific Reports, 2023) are described below.

This assay addresses T1, yeast topoisomerase II (yTOPO II) (Saccharomyces cerevisiae, UniProt P06786).
T1 construct: gene TOP2; purified enzyme from the Inspiralis yeast topoisomerase II relaxation assay kit
T1 sequence (P06786 1-1428): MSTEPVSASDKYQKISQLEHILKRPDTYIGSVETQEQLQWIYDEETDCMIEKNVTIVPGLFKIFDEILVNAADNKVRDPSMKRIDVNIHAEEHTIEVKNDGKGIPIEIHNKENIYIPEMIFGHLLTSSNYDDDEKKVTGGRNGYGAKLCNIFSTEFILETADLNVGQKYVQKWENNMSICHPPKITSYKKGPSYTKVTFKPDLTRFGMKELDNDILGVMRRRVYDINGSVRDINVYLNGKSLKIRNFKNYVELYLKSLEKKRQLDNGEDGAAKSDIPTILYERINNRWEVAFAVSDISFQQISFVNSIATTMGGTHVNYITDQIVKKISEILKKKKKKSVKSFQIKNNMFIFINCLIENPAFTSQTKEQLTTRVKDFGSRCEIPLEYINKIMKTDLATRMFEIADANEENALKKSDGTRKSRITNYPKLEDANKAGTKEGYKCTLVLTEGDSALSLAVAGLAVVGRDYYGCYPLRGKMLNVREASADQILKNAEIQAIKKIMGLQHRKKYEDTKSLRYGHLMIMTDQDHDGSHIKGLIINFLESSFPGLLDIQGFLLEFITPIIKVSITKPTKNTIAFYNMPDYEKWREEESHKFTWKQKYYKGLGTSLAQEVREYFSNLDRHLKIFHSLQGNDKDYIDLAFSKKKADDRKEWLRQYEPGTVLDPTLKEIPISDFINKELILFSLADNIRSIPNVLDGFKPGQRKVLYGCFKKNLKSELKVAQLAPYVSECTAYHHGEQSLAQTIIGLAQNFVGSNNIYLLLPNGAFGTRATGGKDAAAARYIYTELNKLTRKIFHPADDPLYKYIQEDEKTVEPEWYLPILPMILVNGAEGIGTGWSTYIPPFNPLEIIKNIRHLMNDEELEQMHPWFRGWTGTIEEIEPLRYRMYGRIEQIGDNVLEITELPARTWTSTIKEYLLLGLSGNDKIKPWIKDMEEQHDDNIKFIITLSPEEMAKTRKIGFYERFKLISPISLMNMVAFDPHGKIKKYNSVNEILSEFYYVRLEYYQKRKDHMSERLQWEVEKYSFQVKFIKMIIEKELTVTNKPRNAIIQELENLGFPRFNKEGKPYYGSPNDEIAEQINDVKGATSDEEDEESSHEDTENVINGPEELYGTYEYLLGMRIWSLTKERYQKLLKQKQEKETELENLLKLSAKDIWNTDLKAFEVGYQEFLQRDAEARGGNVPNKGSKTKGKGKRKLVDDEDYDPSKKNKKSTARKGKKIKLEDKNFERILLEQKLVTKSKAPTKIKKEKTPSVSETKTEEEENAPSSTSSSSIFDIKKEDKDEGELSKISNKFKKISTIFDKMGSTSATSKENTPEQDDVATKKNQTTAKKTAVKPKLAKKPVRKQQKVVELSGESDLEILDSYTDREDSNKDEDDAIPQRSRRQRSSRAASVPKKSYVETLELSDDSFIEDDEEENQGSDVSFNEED
Kind of assay: plasmid DNA relaxation assay, gel densitometry. The assay is classed as biochemical. The settings on record: for Complete inhibition: supercoiled pBR322 as DNA substrate. From the text: plasmid DNA relaxation assay, gel densitometry on yeast topoisomerase II (yTOPO II)

As to `O=c1c2cc3ccccc3cc2oc2c([N+](=O)[O-])ccc(NCCN3CCCC3)c12` [compound 9, 9], the “Complete inhibition” value (highest concentration limited by solubility) is listed as above 50 µM.

As to `CCN(CC)CCn1nc2c3c(c([N+](=O)[O-])ccc31)Oc1cc3ccccc3cc1-2` [compound 13, 13], the “Complete inhibition” value is listed as above 150 µM.

Take `CN1CCN(CCCNc2ccc([N+](=O)[O-])c3oc4cc5ccccc5cc4c(=O)c23)CC1` [compound 42, 1-((3-(4-methylpiperazin-1-yl)propyl)amino)-4-nitro-12H-benzo[b]xanthen-12-one]: the IC50 came to 5.86 ± 1.07 µM.

The compound `O=c1c2cc3ccccc3cc2oc2c([N+](=O)[O-])ccc(NCCN3CCOCC3)c12` [compound 44, 1-((2-morpholinoethyl)amino)-4-nitro-12H-benzo[b]xanthen-12-one] yielded an IC50 of 5.36 ± 1.22 µM.

In general, IC50 refers to the concentration that gives 50% inhibition. A low value points to greater potency in that assay.
